Here are results for 19 compounds from patent US7094911B2, “Biphenyl and biphenyl-analogous compounds as integrin antagonists” (Bayer Aktiengesellschaft, priority 1998, dated 2006).

Each structure is given as a SMILES string.

T1 sequence (P06756 31-889 limits assumed): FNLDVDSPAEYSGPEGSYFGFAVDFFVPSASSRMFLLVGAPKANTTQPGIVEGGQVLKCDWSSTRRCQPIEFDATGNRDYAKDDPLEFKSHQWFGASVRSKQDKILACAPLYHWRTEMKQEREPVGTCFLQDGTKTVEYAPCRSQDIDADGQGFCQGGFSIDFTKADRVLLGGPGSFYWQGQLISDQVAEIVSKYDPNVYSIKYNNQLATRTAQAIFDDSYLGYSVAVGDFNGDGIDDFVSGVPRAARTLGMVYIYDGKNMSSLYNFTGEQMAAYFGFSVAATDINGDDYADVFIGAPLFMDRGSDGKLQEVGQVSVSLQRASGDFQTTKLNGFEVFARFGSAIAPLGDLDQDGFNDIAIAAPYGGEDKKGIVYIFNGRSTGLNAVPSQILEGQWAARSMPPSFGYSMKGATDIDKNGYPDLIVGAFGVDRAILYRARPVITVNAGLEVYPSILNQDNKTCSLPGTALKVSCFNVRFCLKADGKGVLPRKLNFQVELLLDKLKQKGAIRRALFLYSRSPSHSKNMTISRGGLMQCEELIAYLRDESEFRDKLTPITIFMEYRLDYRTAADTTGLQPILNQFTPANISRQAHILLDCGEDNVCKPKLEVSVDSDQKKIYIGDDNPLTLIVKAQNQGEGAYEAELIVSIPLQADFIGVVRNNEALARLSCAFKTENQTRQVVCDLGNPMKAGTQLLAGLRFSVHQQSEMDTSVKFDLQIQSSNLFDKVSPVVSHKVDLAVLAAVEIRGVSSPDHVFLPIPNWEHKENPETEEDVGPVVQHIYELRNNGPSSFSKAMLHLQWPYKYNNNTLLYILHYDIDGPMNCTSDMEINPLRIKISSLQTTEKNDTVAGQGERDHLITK
T1 sequence (P06756 891-1048 partner limits assumed): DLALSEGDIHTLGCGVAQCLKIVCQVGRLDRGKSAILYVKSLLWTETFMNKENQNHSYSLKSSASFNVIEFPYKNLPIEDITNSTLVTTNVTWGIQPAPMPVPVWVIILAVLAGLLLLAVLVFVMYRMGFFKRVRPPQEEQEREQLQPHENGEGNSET
T1 sequence (P05106 27-788): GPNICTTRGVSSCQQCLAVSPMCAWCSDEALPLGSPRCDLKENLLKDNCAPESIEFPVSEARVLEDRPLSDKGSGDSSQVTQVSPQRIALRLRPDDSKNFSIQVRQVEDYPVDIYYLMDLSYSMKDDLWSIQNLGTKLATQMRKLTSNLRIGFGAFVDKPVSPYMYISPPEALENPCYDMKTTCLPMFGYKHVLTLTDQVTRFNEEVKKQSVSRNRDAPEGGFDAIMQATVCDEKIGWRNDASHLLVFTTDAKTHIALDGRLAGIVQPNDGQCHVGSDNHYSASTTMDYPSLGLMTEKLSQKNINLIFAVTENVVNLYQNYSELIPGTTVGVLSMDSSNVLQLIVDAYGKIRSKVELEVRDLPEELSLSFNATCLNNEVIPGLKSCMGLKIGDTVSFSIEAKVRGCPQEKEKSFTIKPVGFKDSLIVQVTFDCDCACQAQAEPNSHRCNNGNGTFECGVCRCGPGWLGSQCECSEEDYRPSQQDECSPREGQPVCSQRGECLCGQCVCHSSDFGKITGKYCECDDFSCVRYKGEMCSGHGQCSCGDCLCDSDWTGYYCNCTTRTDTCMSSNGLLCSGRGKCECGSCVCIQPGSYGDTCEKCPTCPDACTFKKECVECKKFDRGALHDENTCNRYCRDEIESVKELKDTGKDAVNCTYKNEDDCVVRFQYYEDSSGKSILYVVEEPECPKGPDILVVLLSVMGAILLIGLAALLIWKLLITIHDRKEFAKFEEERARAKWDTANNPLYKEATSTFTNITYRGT

One data set addresses T1, ανβ3 receptor (Homo sapiens, UniProt P05106+P06756).
T1 construct: ανβ3 from human A375 cells were purified according to a procedure described by Wong et al; endogenous in cells; host or cells: human A375 cells (receptor purified from the cells, detergent-solubilised)
The data set is described as follows: Binding to the αvβ3 receptor (echistatin SPA). The note with it: ανβ3 purified from human A375 cells, labelled echistatin, WGA SPA beads; read-out: avb3 IC50. How it is done:
Biological Investigations a) Binding to the ανβ3 Receptor
10 μl ανβ3 (5 ng) in TBS pH 7.6, 2 mM CaCl2, 1 mM MgCl2, 1% n/octylglucopyranoside; 10 μl of the substance to be tested in TBS pH 7.6, 0.1% dimethylsulfoxide (DMSO), and 45 μl TBS pH 7.6, 2 mM CaCl2, 1 MM MgCl2, 1 mM MnCl2 were each incubated for 1 h at room temperature.
`CC1(C)[C@@H]2CC[C@@]1(CS(=O)(=O)N[C@@H](Cc1ccc(-c3cccc(NC(=O)Nc4cccnc4)c3)cc1)C(=O)O)C(=O)C2` [Example 1.73, (2S)-3-[3′-(3-Pyridin-3-yl-ureido)-biphenyl-4-yl]-2-[(S)-campher-10-yl-sulfonylamino]-propanoic acid]: the IC50 was determined as 2 nM.

For the next data set, the system named is smooth muscle cells. Description: Smooth muscle cell (SMC) migration test. Type of data set: cell-based, humans or rats. To be noted: horizontal migration on vitronectin-coated plates, 24 hours; human or rat cells not specified. The method, then:
b) Smooth Muscle Cell (SMC) Migration Test
Smooth muscle cells from humans or rats were used. The migration of the cells was determined in a horizontal measuring arrangement (Falcon).
The horizontal migration was determined in 6-well plates coated with vitronectin (1 μg/cm^2). The cells were suspended in a medium (DMEM:F12/0, 12% BSA-rat smooth muscle cells or MCDB 131 with 0.2% BSA-human smooth muscle cells), inoculated and allowed to grow to confluence. Half of the smooth muscle cell lawn was then scraped off, and the cells were treated with different concentrations of the test compounds. The mixtures were incubated for 24 hours at 37° C. in the presence of 5% CO2 After the incubation, the smooth muscle cell migration was determined by measurement of the migration distance and the cell density of the migrated cells.
As for `CC1(C)[C@@H]2CC[C@@]1(CS(=O)(=O)N[C@@H](Cc1ccc(-c3cccc(NC(=O)Nc4cccnc4)c3)cc1)C(=O)O)C(=O)C2` [Example 1.73, (2S)-3-[3′-(3-Pyridin-3-yl-ureido)-biphenyl-4-yl]-2-[(S)-campher-10-yl-sulfonylamino]-propanoic acid], the IC50 fell in the range of 3 to 40 nM.

Test system in a further data set: not given
Experiment: not given
Settings: not given
Consider `COc1ccc(-c2cccc(NC(=O)NCc3ccc(C(F)(F)F)cc3)c2)cc1S(=O)(=O)NC(CC(=O)O)c1ccccc1` (centres unmarked) [Example 4.102], for which the melting point was > 240 °C.
Regarding `Cc1cc(C)c(S(=O)(=O)N[C@@H](Cc2ccc(-c3cccc(NC(=O)N=c4[nH]c5cc(C)c(C)cc5[nH]4)c3)cc2)C(=O)O)c(C)c1` [Example 1.190], the melting point was 202 °C.
Still for that read-out and setting: the same measure for `O=C(O)[C@H](Cc1ccc(-c2cccc(CNc3ccccn3)c2)cc1)NS(=O)(=O)c1c(F)cccc1F` [Example 18.12]: > 240 °C; for `Cc1cc(C)c(S(=O)(=O)N[C@@H](Cc2ccc(-c3cccc(NC(=O)Nc4nccs4)c3)cc2)C(=O)O)c(C)c1` [Example 1.198]: 212 °C.
For the compound `O=C(NCc1ccccc1)Nc1cccc(-c2ccc(C[C@H](NS(=O)(=O)CCCC(F)(F)F)C(=O)O)cc2)c1` [Example 1.161], the melting point was found to be 163 °C.
On to `CN(CC(=O)O)S(=O)(=O)c1cccc(-c2cccc(NC(=O)N=c3[nH]c4ccccc4[nH]3)c2)c1` [Example 6.13], for which the melting point was 184 °C.
With `Cc1cc(C)c(S(=O)(=O)N[C@@H](Cc2ccc(-c3cccc(N/C(=N/C#N)NCc4ccccc4)c3)cc2)C(=O)O)c(C)c1` [Example 10.8], the melting point came to 169 °C.
In turn, `Cc1cc(C)c(S(=O)(=O)N[C@@H](Cc2ccc(-c3cccc(NC(=O)Nc4nc5ccc(C)cc5s4)c3)cc2)C(=O)O)c(C)c1` [Example 1.199] showed a melting point of 220 °C.
`COc1ccc(-c2cccc(NC(=O)NCCSC(F)(F)F)c2)cc1S(=O)(=O)NC(CC(=O)O)c1ccccc1` (centres unmarked) [Example 4.101]: the melting point is > 240 °C.
For the compound `COc1ccc(-c2cccc(Nc3ncccc3N)c2)cc1S(=O)(=O)NC(CC(=O)O)c1ccccc1` (centres unmarked) [Example 20.4], the melting point is > 240 °C.
Same read-out and setting: the same measure for `COc1ccc(-c2cccc(NC(=O)/N=c3\[nH]c4ccc(C(=O)O)cc4[nH]3)c2)cc1S(=O)(=O)NC(CC(=O)O)c1ccccc1` (centres unmarked) [Example 4.103]: > 240 °C.
As for `CC1(C)[C@H]2CCC1(CS(=O)(=O)N[C@@H](Cc1ccc(-c3cccc(N/C(=C/[N+](=O)[O-])NCc4cccnc4)c3)cc1)C(=O)O)C(=O)C2` [Example 12.8], the melting point was determined as 170 °C.
Compound `Cc1cc(C)c(S(=O)(=O)N[C@@H](Cc2ccc(-c3cccc(NC(=O)Nc4nncs4)c3)cc2)C(=O)O)c(C)c1` [Example 1.204] gave a melting point of 202 °C.
Regarding `CCCNC(=O)Nc1ccc(-c2cccc(CC(NS(=O)(=O)c3c(C)cc(C)cc3C)C(=O)O)c2)cc1` (centres unmarked) [Example 1.203], the melting point stood at 119 °C.
The compound `COc1ccc(-c2cccc(CNc3ccccn3)c2)cc1S(=O)(=O)NC(CC(=O)O)c1ccccc1` (centres unmarked) [Example 18.3] registered a melting point of 138 °C.
With `COc1ccc2[nH]/c(=N\C(=O)Nc3cccc(-c4ccc(C[C@H](NS(=O)(=O)c5c(C)cc(C)cc5C)C(=O)O)cc4)c3)[nH]c2c1` [Example 1.188], the melting point amounted to 215 °C.
Still for that read-out and setting: the same measure for `COc1ccc(-c2ccc(NC(=O)NCc3ccccn3)cc2)cc1S(=O)(=O)NC(CC(=O)O)c1ccccc1` (centres unmarked) [Example 4.69]: 158 °C.

Another data set deals with αvβ3 receptor.
Experiment: not given
The note with it: WO 98/00395, second value; cited from earlier work.
As to `CC1(C)C2CCC1(CS(=O)(=O)NC(Cc1ccc(OCCCC(=O)NC(=N)N)cc1)C(=O)O)C(=O)C2` (centres unmarked) [(I)], the IC50 was 0.16 nM.
